In PMC5419029 (Cancer research, 2017):

Key:
OCTN1 [1] = target: T1, OCTN1 (Homo sapiens, UniProt Q9H015); test: uptake; assay type: cell-based
T1 sequence (Q9H015 1-551): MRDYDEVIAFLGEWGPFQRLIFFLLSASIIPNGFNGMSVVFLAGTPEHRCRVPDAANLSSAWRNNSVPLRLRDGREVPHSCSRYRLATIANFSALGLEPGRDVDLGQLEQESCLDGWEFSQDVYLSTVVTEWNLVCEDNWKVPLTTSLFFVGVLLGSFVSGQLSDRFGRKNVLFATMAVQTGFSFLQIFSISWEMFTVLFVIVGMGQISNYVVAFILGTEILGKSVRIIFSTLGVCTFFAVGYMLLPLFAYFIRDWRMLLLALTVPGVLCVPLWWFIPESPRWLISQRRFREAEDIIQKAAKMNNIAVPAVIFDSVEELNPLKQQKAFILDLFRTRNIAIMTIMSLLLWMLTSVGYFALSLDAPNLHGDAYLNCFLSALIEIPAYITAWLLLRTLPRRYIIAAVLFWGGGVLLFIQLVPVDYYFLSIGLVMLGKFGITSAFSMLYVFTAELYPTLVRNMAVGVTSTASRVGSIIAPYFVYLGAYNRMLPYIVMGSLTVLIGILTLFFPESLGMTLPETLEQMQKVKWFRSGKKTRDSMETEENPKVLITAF

OCTN1 [2] = target: T1, OCTN1; test: uptake in OCTN1-transfected HEK293 cells; assay type: cell-based
OCTN1 [3] = target: T1, OCTN1

| SMILES | uptake (1 μM, 5 min) in OCTN1-transfected HEK293 cells (OCTN1 [1]) | also measured |
| --- | --- | --- |
| Nc1nc(Cl)nc2c1ncn2[C@@H]1O[C@H](CO)[C@@H](O)[C@@H]1F [clofarabine] | adenosine analogs (eg, clofarabine and fludarabine), and guanosine analogs (eg, ribavirin) |  |
| C[N+](C)(C)[C@@H](Cc1c[nH]c(=S)[nH]1)C(=O)[O-] [ergothioneine] |  | uptake in OCTN1-transfected HEK293 cells (transport efficiency) (OCTN1 [2]): 62 ± 8 µL/min/mg |
| Nc1nc(F)nc2c1ncn2[C@@H]1O[C@H](CO)[C@@H](O)[C@@H]1O [fludarabine] | adenosine analogs (eg, clofarabine and fludarabine), and guanosine analogs (eg, ribavirin) |  |
| NC(=O)c1ncn([C@@H]2O[C@H](CO)[C@@H](O)[C@H]2O)n1 [ribavirin] | adenosine analogs (eg, clofarabine and fludarabine), and guanosine analogs (eg, ribavirin) |  |
| CC[N+](CC)(CC)CC [tetraethylammonium] |  | carbon 14-labeled TEA uptake in OCTN1-transfected HEK293 cells (transport effici) (OCTN1 [3]): 1.1 ± 0.12 µL/min/mg |
